Results from patent publication US20050014782A1, “Novel n-(heterobicycloalkanes)-substituted indoles-or heteroderivatives thereof” (Boehringer Ingelheim International GmbH, priority 2003, published 2005).
Counter-ions that a name gives are not always drawn.

Tests used:
[1] = molecular target: T1, human chemokine receptor CCR-3 (Homo sapiens, UniProt P51677); assay: CCR-3 receptor binding assay, 125Jodine-eotaxin-1 Scintillation Proximity Assay (SPA)
T1 construct: expressed in transfected cells; host or cells: K562 cells (clone hCCR-3-C1), membranes
T1 sequence (P51677 1-355): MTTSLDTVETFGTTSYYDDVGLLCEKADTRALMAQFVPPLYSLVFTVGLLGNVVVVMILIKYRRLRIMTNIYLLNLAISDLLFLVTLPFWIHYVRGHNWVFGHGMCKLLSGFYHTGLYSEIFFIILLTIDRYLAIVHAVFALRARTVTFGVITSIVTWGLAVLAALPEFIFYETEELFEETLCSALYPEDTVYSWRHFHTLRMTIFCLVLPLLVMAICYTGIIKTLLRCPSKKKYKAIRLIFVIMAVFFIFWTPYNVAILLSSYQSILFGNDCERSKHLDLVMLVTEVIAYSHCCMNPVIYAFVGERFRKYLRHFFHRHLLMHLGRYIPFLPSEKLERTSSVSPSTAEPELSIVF
Method: The CCR-3 receptor binding test is based on a K562 cell line (leukemia myelogenic blast cells) transfected with the human chemokine receptor CCR-3 (hCCR-3-C1). The cell membranes were prepared by disrupting the hCCR-3 transfected K562 cells by […] and centrifugation at 40000 g, 4° C. for 1 h. The membranes were re-suspended in the SPA incubation buffer without bovine serum albumin for storage in aliquots at −80° C.
The CCR-3 receptor binding assay with the radioligand ^125Jodine-eotaxin-1 was performed in a Scintillation Proximity Assay (SPA) design. Cell membranes of hCCR-3 C1 cells were diluted in suitable concentrations (0.5-5 ug protein/well) in 96 well microtiter plates (1450-401, Wallac).
The test incubation mixture comprising 60 μl of the membrane suspension, 80 μl of the Wheat Germ Agglutinin coated PVT beads (organic scintillator, Amersham Pharmacia biotech) in a concentration of 0.4 mg and 40 μl of radiolabelled ^125J rhEotaxin (Amersham, IM290) were incubated with 20 μl of the test compound (dissolved in DMSO dilutions) for 2 hours. The SPA incubation buffer contained 25 mM HEPES, 25 mM MgCl2 6×H2O, 1 mM CaCl2 2×H2O and 0.1% bovine serum albumin. Included were controls for specific binding (no displacer added) and non-specific binding by adding unlabelled rhEotaxin (R&D Systems) or a test compound. Bound radioactivity was determined by scintillation counter (Micro Beta “Trilux”, Wallac). Determination of affinity of test compounds (dissociation constant Ki) was calculated by iterative fitting of experimental data using the law of mass action based program “easy sys” (Schittkowski, Num Math 68, 129-142 (1994)).

In the case of `CCc1nc2cc(F)ccc2n1C1CC2CCC(C1)N2CCCSc1ccc(F)cc1` (centres unmarked) (as salt: HCl) [Example 10, 2-Ethyl-5-fluoro-1-{8-[3-(4-fluoro-phenylsulfanyl)-propyl]-8-aza-bicyclo[3.2.1]oct-3-yl}-1H-benzoimidazole], the melting point is reported as 127 to 128 °C.
With `Cc1nc2cc(F)ccc2n1C1CC2CCC(C1)N2CCCSc1ccc(F)cc1` (centres unmarked) (as salt: HCl) [Example 11, 5-Fluoro-1-{8-[3-(4-fluoro-phenylsulfanyl)-propyl]-8-aza-bicyclo[3.2.1]oct-3-yl}-2-methyl-1H-benzoimidazole] the melting point was 240 to 241 °C.
With `Fc1ccc(SCCCN2C3CCC2CC(n2c(C4CC4)nc4cc(F)ccc42)C3)cc1` (centres unmarked) [Example 9, 2-Cyclopropyl-5-fluoro-1-{8-[3-(4-fluoro-phenylsulfanyl)-propyl]-8-aza-bicyclo[3.2.1]oct-3-yl}1H-benzoimidazole] the Ki [1] was 10 nM.
Compound `CCc1nc2cc(F)ccc2n1C1CC2CCC(C1)N2CCCSc1ccc(F)cc1` (centres unmarked) [Example 10, 2-Ethyl-5-fluoro-1-{8-[3-(4-fluoro-phenylsulfanyl)-propyl]-8-aza-bicyclo[3.2.1]oct-3-yl}-1H-benzoimidazole] has a Ki [1] of 6.5 nM.
Work on `Cc1nc2cc(F)ccc2n1C1CC2CCC(C1)N2CCCSc1ccc(F)cc1` (centres unmarked) [Example 11, 5-Fluoro-1-{8-[3-(4-fluoro-phenylsulfanyl)-propyl]-8-aza-bicyclo[3.2.1]oct-3-yl}-2-methyl-1H-benzoimidazole] yielded a Ki [1] of 14 nM.
